Test results: ChEMBL document CHEMBL5724914, “Linking interpersonal differences in gut microbiota composition and drug biotransformation activity” (2024)

Assay: (§1) The drug is tested on WLS-038 corresponding to human gut metagenome with ENA study accession number: PRJEB37062 and ENA sample accession number: ERS12561745 for biotransformation under anaerobic condition. The drug concentrations were measured over 9 timepoints collected between 0 and 24 hours of incubation by liquid-chromatography-coupled mass spectrometry (LC–MS)
Settings: 2 µM
Also: call rule not given here.

SMILES	Bacterial Biotransformation
Cc1cc2c(s1)Nc1ccccc1N=C2N1CCN(C)CC1 [OLANZAPINE]	Compound NOT metabolized
COc1ccc(Cc2nccc3cc(OC)c(OC)cc23)cc1OC [PAPAVERINE]	Compound NOT metabolized

Assay: as §1, with “Z-029” for “WLS-038”, “rat” for “human”, “ERS12561828” for “ERS12561745”
Settings: 2 µM

SMILES	Bacterial Biotransformation
Cc1cc2c(s1)Nc1ccccc1N=C2N1CCN(C)CC1 [OLANZAPINE]	Compound NOT metabolized
COc1ccc(Cc2nccc3cc(OC)c(OC)cc23)cc1OC [PAPAVERINE]	Compound NOT metabolized

Assay: as §1, with “Z-024” for “WLS-038”, “pig” for “human”, “ERS12561823” for “ERS12561745”
Settings: 2 µM

SMILES	Bacterial Biotransformation
Cc1cc2c(s1)Nc1ccccc1N=C2N1CCN(C)CC1 [OLANZAPINE]	Compound NOT metabolized
COc1ccc(Cc2nccc3cc(OC)c(OC)cc23)cc1OC [PAPAVERINE]	Compound metabolized

Settings: human gut metagenome, 24 h, 2 µM

SMILES	Bacterial Biotransformation
Cc1cc2c(s1)Nc1ccccc1N=C2N1CCN(C)CC1 [OLANZAPINE]	Compound NOT metabolized
COc1ccc(Cc2nccc3cc(OC)c(OC)cc23)cc1OC [PAPAVERINE]	Compound metabolized

Assay: as §1, with “Z-027” for “WLS-038”, “to” for “to human gut”, “ERS12561826” for “ERS12561745”
Settings: 2 µM

SMILES	Bacterial Biotransformation
Cc1cc2c(s1)Nc1ccccc1N=C2N1CCN(C)CC1 [OLANZAPINE]	Compound NOT metabolized
COc1ccc(Cc2nccc3cc(OC)c(OC)cc23)cc1OC [PAPAVERINE]	Compound NOT metabolized

Settings: human gut metagenome, 24 h, 2 µM
Remark: another data set of the same source

SMILES	Bacterial Biotransformation
Cc1cc2c(s1)Nc1ccccc1N=C2N1CCN(C)CC1 [OLANZAPINE]	Compound metabolized
COc1ccc(Cc2nccc3cc(OC)c(OC)cc23)cc1OC [PAPAVERINE]	Compound metabolized

Settings: human gut metagenome, 24 h, 2 µM
Remark: another data set of the same source

SMILES	Bacterial Biotransformation
Cc1cc2c(s1)Nc1ccccc1N=C2N1CCN(C)CC1 [OLANZAPINE]	Compound NOT metabolized
COc1ccc(Cc2nccc3cc(OC)c(OC)cc23)cc1OC [PAPAVERINE]	Compound metabolized

Assay: as §1, with “Z-002” for “WLS-038”, “rabbit” for “human”, “ERS12561802” for “ERS12561745”
Settings: 2 µM

SMILES	Bacterial Biotransformation
Cc1cc2c(s1)Nc1ccccc1N=C2N1CCN(C)CC1 [OLANZAPINE]	Compound metabolized
COc1ccc(Cc2nccc3cc(OC)c(OC)cc23)cc1OC [PAPAVERINE]	Compound metabolized

Settings: human gut metagenome, 24 h, 2 µM
Remark: another data set of the same source

SMILES	Bacterial Biotransformation
Cc1cc2c(s1)Nc1ccccc1N=C2N1CCN(C)CC1 [OLANZAPINE]	Compound NOT metabolized
COc1ccc(Cc2nccc3cc(OC)c(OC)cc23)cc1OC [PAPAVERINE]	Compound NOT metabolized

Settings: human gut metagenome, 24 h, 2 µM
Remark: another data set of the same source

SMILES	Bacterial Biotransformation
COc1ccc(Cc2nccc3cc(OC)c(OC)cc23)cc1OC [PAPAVERINE]	Compound NOT metabolized

Settings: human gut metagenome, 24 h, 2 µM
Remark: another data set of the same source

SMILES	Bacterial Biotransformation
Cc1cc2c(s1)Nc1ccccc1N=C2N1CCN(C)CC1 [OLANZAPINE]	Compound NOT metabolized
COc1ccc(Cc2nccc3cc(OC)c(OC)cc23)cc1OC [PAPAVERINE]	Compound metabolized

Settings: human gut metagenome, 24 h, 2 µM
Remark: another data set of the same source

SMILES	Bacterial Biotransformation
Cc1cc2c(s1)Nc1ccccc1N=C2N1CCN(C)CC1 [OLANZAPINE]	Compound metabolized
COc1ccc(Cc2nccc3cc(OC)c(OC)cc23)cc1OC [PAPAVERINE]	Compound metabolized

Assay: as §1, with “WLS-069” for “WLS-038”, “ERS12561748” for “ERS12561745”
Settings: 2 µM

SMILES	Bacterial Biotransformation
Cc1cc2c(s1)Nc1ccccc1N=C2N1CCN(C)CC1 [OLANZAPINE]	Compound NOT metabolized
COc1ccc(Cc2nccc3cc(OC)c(OC)cc23)cc1OC [PAPAVERINE]	Compound metabolized

Assay: as §1, with “Z-012” for “WLS-038”, “to” for “to human gut”, “ERS12561812” for “ERS12561745”
Settings: 2 µM

SMILES	Bacterial Biotransformation
Cc1cc2c(s1)Nc1ccccc1N=C2N1CCN(C)CC1 [OLANZAPINE]	Compound NOT metabolized
COc1ccc(Cc2nccc3cc(OC)c(OC)cc23)cc1OC [PAPAVERINE]	Compound NOT metabolized

Settings: human gut metagenome, 24 h, 2 µM
Remark: another data set of the same source

SMILES	Bacterial Biotransformation
Cc1cc2c(s1)Nc1ccccc1N=C2N1CCN(C)CC1 [OLANZAPINE]	Compound NOT metabolized
COc1ccc(Cc2nccc3cc(OC)c(OC)cc23)cc1OC [PAPAVERINE]	Compound metabolized

Assay: as §1, with “Z-016” for “WLS-038”, “mouse” for “human”, “ERS12561815” for “ERS12561745”
Settings: 2 µM

SMILES	Bacterial Biotransformation
Cc1cc2c(s1)Nc1ccccc1N=C2N1CCN(C)CC1 [OLANZAPINE]	Compound NOT metabolized
COc1ccc(Cc2nccc3cc(OC)c(OC)cc23)cc1OC [PAPAVERINE]	Compound NOT metabolized

Assay: as §1, with “Z-011” for “WLS-038”, “mouse” for “human”, “ERS12561811” for “ERS12561745”
Settings: 2 µM

SMILES	Bacterial Biotransformation
Cc1cc2c(s1)Nc1ccccc1N=C2N1CCN(C)CC1 [OLANZAPINE]	Compound NOT metabolized
COc1ccc(Cc2nccc3cc(OC)c(OC)cc23)cc1OC [PAPAVERINE]	Compound NOT metabolized

Assay: as §1, with “WLS-240” for “WLS-038”, “ERS12561773” for “ERS12561745”
Settings: 2 µM

SMILES	Bacterial Biotransformation
Cc1cc2c(s1)Nc1ccccc1N=C2N1CCN(C)CC1 [OLANZAPINE]	Compound NOT metabolized

Settings: human gut metagenome, 24 h, 2 µM
Remark: another data set of the same source

SMILES	Bacterial Biotransformation
Cc1cc2c(s1)Nc1ccccc1N=C2N1CCN(C)CC1 [OLANZAPINE]	Compound metabolized
COc1ccc(Cc2nccc3cc(OC)c(OC)cc23)cc1OC [PAPAVERINE]	Compound metabolized
